In article PMC9177545, “3-oxo-C12:2-HSL, quorum sensing molecule from human intestinal microbiota, inhibits pro-inflammatory pathways in immune cells via bitter taste receptors” (Scientific Reports, 2022):

Legend:
[1] = target: T1, TAS2R138 (Mus musculus, UniProt Q7TQA6); experiment: TAS2R38/TAS2R138 inhibition experiment: TNFα secretion of RAW264.7 cells pre-treated with probenecid; format: cell-based; conditions: pre-treated with 1 mM probenecid one hour, then LPS, IFNγ and AHL six hours
T1 construct: endogenous in cells; host or cells: RAW264.7 murine macrophages (ATCC)
T1 sequence (Q7TQA6 1-331): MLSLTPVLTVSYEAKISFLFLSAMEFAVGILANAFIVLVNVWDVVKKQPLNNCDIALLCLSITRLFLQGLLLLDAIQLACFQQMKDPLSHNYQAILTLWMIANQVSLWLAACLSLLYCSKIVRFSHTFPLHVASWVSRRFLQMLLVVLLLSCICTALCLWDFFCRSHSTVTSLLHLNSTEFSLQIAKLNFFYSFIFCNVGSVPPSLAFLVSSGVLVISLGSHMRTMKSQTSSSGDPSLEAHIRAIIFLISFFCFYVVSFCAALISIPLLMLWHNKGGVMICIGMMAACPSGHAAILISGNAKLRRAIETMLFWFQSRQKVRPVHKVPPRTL
Experimental: (§1) In RAW264.7 cells, inflammation was triggered with LPS (10 ng/mL, Sigma) and IFNγ (10 U/mL, R&Dsystems) for 2 h or 6 h, depending on the experiments. PBMC were exposed to LPS (10 ng/mL) and AHL for 24 h. For TAS2R38 inhibition experiments, cells were exposed to TAS2R38 allosteric inhibitor probenecid (1 mM, Sigma) for one hour before adding AHLs and the inflammatory cocktail, without changing the media.
At the end of cell treatment, the medium was centrifuged at 300g for 5 min at 4 °C. Supernatant was frozen at − 80 °C until ELISA assays. TNFα and IL-1β ELISA kits were purchased from R&D systems and performed according to the manufacturer’s instructions. Briefly, plates were coated with a capture antibody and incubated overnight. Wells were blocked using 1% bovine serum albumin-PBS solution (Sigma), then exposed to cell supernatants at room temperature for two hours. Wells were washed and incubated with the detection antibody for an additional two hours. After thorough washing, Streptavidin-HRP solution was added for 20 min. Wells were washed, then incubated with TMB (Biolegend) solution for 20 min and the reaction was stopped using 1 M H2SO4. Absorbance was measured by a spectrometer (FLUOstar Omega; BMG Labtech) at 450 nm and the absorbance at 540 nm was subtracted.

[2] = system: JAK2; experiment: JAK2 phosphorylation by Wes capillary electrophoresis in activated RAW264.7 macrophages; format: cell-based, murine; conditions: 50 µM, 2 h, LPS and IFNγ stimulated
Experimental: as §1
RAW264.7 cells were scraped in lysis buffer (20 mM Tris- HCl, pH 7.4, 5 mM EDTA, 0.15 M NaCl, 1% Triton X-100, 0.5% sodium deoxycholate) supplemented with protease inhibitor cocktail (Complete Mini; Roche, Boulogne-Billancourt, France) and phosphatase inhibitor cocktail (PhosSTOP, Sigma-Aldrich). Protein concentrations were determined using the BC Assay (Uptima/Interchim). Wes™ analyses (capillary electrophoresis system; ProteinSimple, San Jose, CA) were performed according to the manufacturer’s recommendations, and adequate protein concentrations and antibody dilutions were determined in preliminary assays to allow optimal quantitative conditions. […] Data were analysed using Compass for SW3.1 software (ProteinSimple).

anti-inflammatory effect (TNFα secretion) when TAS2R138 is inhibited [1]: abolished
Substance: 3-oxo-C12:2-HSL
phosphorylation level of JAK2 vs activated cells without AHL [2]: not significantly altered
